Experiments:
Experiment in all cases: relative viability (nuclei count vs DMSO), 5 days (fraction); higher = more cells survive
Palbociclib = compound: CC(=O)c1c(C)c2cnc(Nc3ccc(N4CCNCC4)cn3)nc2n(C2CCCC2)c1=O [Palbociclib]
Summary of the method: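 Viability here means nuclei in treated wells divided by nuclei in vehicle wells, reported as the median across plates. Only plates with control CV below 25% and at least one doubling passed. Lung cancer cell lines in 1536-well plates were exposed to five √10-spaced library-drug doses for 5 days and counted from 4× Hoechst images in MetaXpress.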

Palbociclib + Lapatinib = compound: CC(=O)c1c(C)c2cnc(Nc3ccc(N4CCNCC4)cn3)nc2n(C2CCCC2)c1=O [Palbociclib] + CS(=O)(=O)CCNCc1ccc(-c2ccc3ncnc(Nc4ccc(OCc5cccc(F)c5)c(Cl)c4)c3c2)o1 [Lapatinib] (partner 2 µM)
Summary of the method: (§1)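 Dosing by pin tool came one day after lung cancer cell lines were seeded in 1536-well plates, using either one drug or a fixed anchor-drug dose plus five library-drug doses (not always all listed) in √10 steps. After 5 days, nuclei were counted on 4× images. Relative viability is treated-well nuclei count divided by vehicle-well nuclei count, and values are medians of duplicate plates.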

Palbociclib + Pictilisib = compound: CC(=O)c1c(C)c2cnc(Nc3ccc(N4CCNCC4)cn3)nc2n(C2CCCC2)c1=O [Palbociclib] + CS(=O)(=O)N1CCN(Cc2cc3nc(-c4cccc5[nH]ncc45)nc(N4CCOCC4)c3s2)CC1 [Pictilisib] (partner 1 µM)
Summary of the method: as §1

Row | Cell Line | relative viability (Palbociclib; 0.01 µM) | relative viability (Palbociclib; 0.03162 µM) | relative viability (Palbociclib; 0.1 µM) | relative viability (Palbociclib; 0.3162 µM) | relative viability (Palbociclib; 0.5 µM, anchor plate) | relative viability (Palbociclib; 1 µM) | relative viability (Palbociclib + Lapatinib; first compound 0.01 µM) | relative viability (Palbociclib + Lapatinib; first compound 0.03162 µM) | relative viability (Palbociclib + Lapatinib; first compound 0.1 µM) | relative viability (Palbociclib + Lapatinib; first compound 0.3162 µM) | relative viability (Palbociclib + Lapatinib; first compound 1 µM) | relative viability (Palbociclib + Pictilisib; first compound 0.01 µM) | relative viability (Palbociclib + Pictilisib; first compound 0.03162 µM) | relative viability (Palbociclib + Pictilisib; first compound 0.1 µM) | relative viability (Palbociclib + Pictilisib; first compound 0.3162 µM) | relative viability (Palbociclib + Pictilisib; first compound 1 µM)
1 | NCI-H3122 | 0.977 | 0.944 | 0.866 | 0.797 | 0.192 | 0.456 | 0.994 | 0.998 | 0.911 | 0.819 | 0.579 | 0.536 | 0.523 | 0.449 | 0.332 | 0.234
2 | HCC-78 | 0.998 | 0.756 | 0.698 | 0.703 | 0.477 | 0.385 | 0.914 | 0.313 | 0.513 | 0.685 | 0.198 | 0.206 | 0.202 | 0.19 | 0.251 | 0.154
3 | PC-3 [JPC-3] | 1.08 | 0.895 | 0.855 | 0.761 | 0.536 | 0.59 | 0.436 | 0.378 | 0.433 | 0.415 | 0.344 | 0.778 | 0.647 | 0.56 | 0.677 | 0.494
4 | HCC-15 | 0.986 | – | 0.915 | 0.828 | 0.717 | 0.732 | 0.934 | – | 0.75 | 0.796 | 0.642 | 0.71 | – | 0.617 | 0.591 | 0.603
5 | NCI-H1755 | 1.03 | 0.896 | 0.915 | 0.845 | 0.443 | 0.664 | 1.07 | 0.604 | 0.929 | 0.878 | 0.617 | 0.437 | 0.297 | 0.337 | 0.29 | 0.263
6 | COR-L23 | 1.05 | 0.886 | 0.739 | 0.808 | 0.293 | 0.528 | 1.02 | 0.864 | 0.777 | 0.667 | 0.418 | 0.772 | 0.655 | 0.503 | 0.463 | 0.328
7 | NCI-H838 | 1.06 | 0.833 | 0.761 | 0.816 | 0.232 | 0.353 | 0.919 | 0.927 | 0.767 | 0.776 | 0.276 | 0.393 | 0.329 | 0.307 | 0.348 | 0.197
8 | RERF-LC-KJ | 1.02 | 0.871 | 0.968 | 1.02 | 1.09 | 1.02 | 0.846 | 0.81 | 0.817 | 0.869 | 0.837 | 0.53 | 0.459 | 0.464 | 0.484 | 0.629
9 | NCI-H1299 | 0.981 | 0.977 | 0.906 | 0.839 | – | 0.729 | 0.952 | 0.877 | 0.86 | 0.809 | 0.642 | 0.762 | 0.486 | 0.541 | 0.347 | 0.259
10 | NCI-H1666 | 1 | 0.86 | 0.873 | 0.836 | 0.632 | 0.582 | 0.644 | 0.559 | 0.419 | 0.474 | 0.384 | 0.477 | 0.386 | 0.345 | 0.297 | 0.277
11 | NCI-H358 | 0.986 | 0.675 | 0.718 | 0.543 | 0.138 | 0.277 | 0.341 | 0.337 | 0.214 | 0.244 | 0.217 | 0.277 | 0.189 | 0.185 | 0.213 | 0.155
12 | COR-L 105 | 1 | 0.724 | 0.616 | 0.651 | 0.408 | 0.473 | 0.352 | 0.281 | 0.312 | 0.339 | 0.354 | 0.384 | 0.337 | 0.261 | 0.319 | 0.367
13 | NCI-H1651 | 0.967 | 0.971 | 0.986 | 0.971 | 0.537 | 0.772 | 0.613 | 0.739 | 0.735 | 0.699 | 0.468 | 0.573 | 0.524 | 0.499 | 0.529 | 0.355
14 | NCI-H441 | 0.829 | 0.655 | 0.741 | 0.741 | 0.235 | 0.5 | – | – | – | – | – | 0.559 | 0.317 | 0.406 | 0.304 | 0.191
15 | Calu-6 | 1.06 | 0.919 | 0.833 | 0.79 | – | 0.588 | 1.07 | 0.897 | 0.855 | 0.709 | 0.53 | 0.908 | 0.779 | 0.698 | 0.508 | 0.371
16 | H3255 | 1.04 | 0.922 | 0.823 | 0.904 | 0.316 | 0.519 | 0.263 | 0.246 | 0.2 | 0.231 | 0.211 | 0.517 | 0.376 | 0.394 | 0.434 | 0.261
17 | HARA | 1.1 | – | 0.746 | 0.652 | 0.262 | 0.392 | 0.715 | 0.473 | 0.397 | 0.363 | 0.225 | 0.406 | 0.347 | 0.225 | 0.202 | 0.169
18 | NCI-H647 | 1.06 | 0.781 | 0.865 | 0.82 | 0.415 | 0.597 | 1.26 | 0.956 | 0.778 | 0.923 | 0.525 | 0.423 | – | 0.275 | 0.307 | 0.278
19 | NCI-H2228 | 1.01 | 0.844 | 0.937 | 0.899 | 0.85 | 0.795 | 1.26 | 0.909 | 0.923 | 0.95 | 0.959 | 0.298 | 0.351 | 0.289 | 0.358 | 0.482
20 | LOU-NH91 | 1.09 | 0.661 | 0.723 | 0.702 | 0.529 | 0.608 | 0.8 | 0.596 | 0.581 | 0.569 | 0.557 | 0.547 | 0.479 | 0.484 | 0.465 | 0.446
21 | ChaGo-K-1 | 1.02 | 0.778 | 1.04 | 1.02 | 0.939 | 1.02 | – | – | – | – | – | 0.836 | 0.51 | 0.753 | 0.955 | 1.12
